US20140073589A1, “Amphetamine Prodrugs” (Shire AG, priority 2012, published 2014)
Entries after “also recorded” stand apart in the source; their conditions may differ.

Experiments:
dog faecal homogenates = assay: In vitro conversion of amphetamine prodrugs to amphetamine in dog faecal homogenates; format: in vitro ADME; settings: dog faecal homogenate, prodrug 10 μM, anaerobic, 37° C.; for Amphetamine C0: time 0; for Amphetamine C6: 6 hours; for Amphetamine C24: 24 hours
Protocol: (§1) Frozen samples were stored at −70° C. prior to analysis for the parent drug and pro-drug using a qualified LC-MS-MS assay.

human faecal homogenates = assay: In vitro conversion of amphetamine prodrugs to amphetamine in human faecal homogenates; format: in vitro ADME; settings: for Amphetamine C0 / Amphetamine C6 / Amphetamine C24: human faecal homogenate, prodrug 10 μM, anaerobic, 37° C.; for Amphetamine C0: time 0; for conversion to the active by the microflora: summary of Table 4 incubations (dog, monkey, human faecal homogenates, rat caecal contents); for conversion to the active, human compared to dog faecal homogenates: human vs dog faecal homogenates; for Amphetamine C6: 6 hours; for Amphetamine C24: 24 hours
Protocol: as §1

[1] = Pharmacokinetics of prodrug and amphetamine after oral dosing to male cynomolgus monkeys (Example 21); settings: cynomolgus monkey
[2] = system: monkey faecal homogenates; assay: In vitro conversion of amphetamine prodrugs to amphetamine in monkey faecal homogenates; format: in vitro ADME; settings: monkey faecal homogenate, prodrug 10 μM, anaerobic, 37° C., time 0
Protocol: as §1

[3] = Pharmacokinetics of prodrug and amphetamine after intravenous dosing to male cynomolgus monkeys (Example 22)
[4] = system: faecal homogenates prepared from three subjects; assay: Interindividual variability in amphetamine generation in human fecal homogenates (Example 25); settings: 100 μM, anaerobic, 37° C., up to 6 hours
[5] = Pharmacokinetics of amphetamine after oral dosing of d-amphetamine or Compound 1, or intranasal dosing of Compound 1, to male dogs (Example 23)
[6] = Pharmacokinetics of prodrug and amphetamine after oral dosing to male dogs (Example 20); settings: for AUC / Tmax: male, dog, in vivo, po, 0.5 mg; for absorption of prodrug in the upper gastrointestinal tract: male dogs, oral gavage of prodrug

SMILES: C[C@@H](Cc1ccccc1)NC(=O)[C@@H](C)O[C@H]1[C@H](O)[C@@H](CO)OC(O)[C@@H]1N (mixture of isomers) [Compound 4, (2R)-2-(((3R,4R,5S,6R)-3-amino-2,5-dihydroxy-6-(hydroxymethyl)tetrahydro-2H-pyran-4-yl)oxy)-N-((S)-1-phenylpropan-2-yl)propanamide]
- Amphetamine C0 (dog faecal homogenates): BLQ
- Amphetamine C0 (human faecal homogenates): BLQ

SMILES: CC(=O)N[C@H]1C(O)O[C@H](CO)[C@H](O)C1O[C@H](C)C(=O)N[C@@H](C)Cc1ccccc1 (stereo partly drawn) [Compound 1, (2R)-2-(((3R,4R,5R,6R)-3-acetamido-2,5-dihydroxy-6-(hydroxymethyl)tetrahydro-2H-pyran-4-yl)oxy)-N-((S)-1-phenylpropan-2-yl)propanamide]
- AUC ([1]; in vivo, 0.5 mg): 187 ng·h/mL
- Tmax ([1]; in vivo, 0.5 mg): 1.1 h
- Amphetamine C0 [2]: BLQ
- conversion to the active amphetamine following systemic exposure [3]: no significant quantities
- amphetamine levels where detected (one time point between 4 and 8 hours) ([3]; 0.2 mg d-amphetamine free base equivalents/kg): near the limit of quantification
- variability of amphetamine generation between subjects [4]: relatively modest variability
- exposure to amphetamine, intranasal compared with oral administration of the prodrug ([5]; 4 mg intranasal vs 4 mg po): less than that observed following oral administration of the prodrug
- onset of amphetamine appearance in the systemic circulation ([5]; intranasal): did not enhance the onset
- conversion to the active by the microflora (human faecal homogenates): efficient conversion
- AUC [6]: 354 ng·h/mL
- Tmax [6]: 1 h

SMILES: C[C@@H](Cc1ccccc1)NC(=O)[C@H](O)[C@@H](O)[C@H](O[C@@H]1O[C@H](CO)[C@H](O)[C@H](O)[C@H]1O)[C@H](O)CO [Compound 5, (2R,3R,4R,5R)-2,3,5,6-tetrahydroxy-N-((S)-1-phenylpropan-2-yl)-4-(((2S,3R,4S,5R,6R)-3,4,5-trihydroxy-6-(hydroxymethyl)tetrahydro-2H-pyran-2-yl)oxy)hexanamide]
- conversion to the active, human compared to dog faecal homogenates (human faecal homogenates): greater activity in human in vitro studies; also recorded: higher in human compared to dog faecal homogenates
- conversion to the active by the microflora (human faecal homogenates): efficient conversion

SMILES: C[C@@H](Cc1ccccc1)NC(=O)[C@H](O)[C@@H](O)[C@H](O)[C@H](O)CO [Compound 6, (2R,3S,4R,5R)-2,3,4,5,6-pentahydroxy-N-((S)-1-phenylpropan-2-yl)hexanamide]
- Amphetamine C0 (dog faecal homogenates): BLQ
- Amphetamine C0 (human faecal homogenates): BLQ
- absorption of prodrug in the upper gastrointestinal tract [6]: high absorption

SMILES: C[C@@H](Cc1ccccc1)NC(=O)[C@@H](C)OC(=O)N[C@H]1C(O)O[C@H](CO)[C@@H](O)[C@@H]1O (stereo partly drawn) [Compound 8, (1R)-1-{[(2S)-1-Phenylpropan-2-yl]carbamoyl}ethyl N-[(3R,4R,5S,6R)-2,4,5-trihydroxy-6-(hydroxymethyl)oxan-3-yl]carbamate]
- Amphetamine C6 (dog faecal homogenates): BLQ
- Amphetamine C24 (dog faecal homogenates): BLQ
- Amphetamine C0 (dog faecal homogenates): BLQ
- Amphetamine C6 (human faecal homogenates): BLQ
- Amphetamine C24 (human faecal homogenates): BLQ
- Amphetamine C0 (human faecal homogenates): BLQ

SMILES: CCO[C@H]1O[C@H](CO)[C@@H](O)[C@H](O)[C@H]1NNC(C)Cc1ccccc1 (stereo partly drawn) [Compound 9, (2R,3S,4R,5R,6S)-6-Ethoxy-2-(hydroxymethyl)-5-[2-(1-phenylpropan-2-yl)hydrazin-1-yl]oxane-3,4-diol]
- absorption of prodrug in the upper gastrointestinal tract [6]: high absorption

SMILES: CO[C@H]1O[C@H](CO)[C@@H](O)[C@H](O)[C@H]1NNC(C)Cc1ccccc1 (stereo partly drawn) [Compound 10, (2R,3S,4R,5R,6S)-6-Methoxy-2-(hydroxymethyl)-5-[2-(1-phenylpropan-2-yl)hydrazin-1-yl]oxane-3,4-diol]
- absorption of prodrug in the upper gastrointestinal tract [6]: high absorption

SMILES: CC(=O)N[C@@H]1CO[C@H](CO)[C@@H](O)[C@@H]1O[C@H](C)C(=O)N[C@@H](C)Cc1ccccc1 [Compound 11, (R)-2-(((2R,3S,4R,5R)-5-Acetamido-3-hydroxy-2-(hydroxymethyl)tetrahydro-2H-pyran-4-yl)oxy)-N-((S)-1-phenylpropan-2-yl)propanamide]
- Amphetamine C6 (dog faecal homogenates): BLQ
- Amphetamine C24 (dog faecal homogenates): BLQ
- Amphetamine C0 (dog faecal homogenates): BLQ
- Amphetamine C6 (human faecal homogenates): BLQ
- Amphetamine C24 (human faecal homogenates): BLQ
- Amphetamine C0 (human faecal homogenates): BLQ

SMILES: C[C@@H](Cc1ccccc1)NC(=O)[C@@H](C)O[C@H]1[C@H](O)[C@@H](CO)OC[C@H]1N [Compound 12, (R)-2-(((2R,3S,4R,5R)-5-Amino-3-hydroxy-2-(hydroxymethyl)tetrahydro-2H-pyran-4-yl)oxy)-N-((S)-1-phenylpropan-2-yl)propanamide]
- Amphetamine C6 (dog faecal homogenates): BLQ
- Amphetamine C24 (dog faecal homogenates): BLQ
- Amphetamine C0 (dog faecal homogenates): BLQ
- Amphetamine C6 (human faecal homogenates): BLQ
- Amphetamine C24 (human faecal homogenates): BLQ
- Amphetamine C0 (human faecal homogenates): BLQ

SMILES: CC(=O)N[C@@H](C=O)[C@@H](O[C@H](C)C(=O)N[C@H](C)Cc1ccccc1)[C@H](O)[C@H](O)CO [Compound 13, (2R)-2-{[(2R,3R,4R,5R)-2-Acetamido-4,5,6-trihydroxy-1-oxohexan-3-yl]oxy}-N-[(2R)-1-phenylpropan-2-yl]propanamide]
- Amphetamine C0 (human faecal homogenates): BLQ
- conversion to the active by the microflora (human faecal homogenates): efficient conversion
- AUC [6]: 564 ng·h/mL
- Tmax [6]: 0.75 h

SMILES: CC(=O)N[C@H]1C(O)O[C@H](CO)[C@@H](O)[C@@H]1O[C@@H](C)C(=O)N[C@@H](C)Cc1ccccc1 (stereo partly drawn) [Compound 14, (2S)-2-(((3R,4R,5S,6R)-3-Acetamido-2,5-dihydroxy-6-(hydroxymethyl)tetrahydro-2H-pyran-4-yl)oxy)-N-((S)-1-phenylpropan-2-yl)propanamide]
- Amphetamine C0 (dog faecal homogenates): BLQ
- Amphetamine C6 (human faecal homogenates): BLQ
- Amphetamine C24 (human faecal homogenates): BLQ
- Amphetamine C0 (human faecal homogenates): BLQ

SMILES: CC(=O)N[C@H]1C(O)O[C@H](CO)[C@@H](O)[C@@H]1OCC(=O)N[C@@H](C)Cc1ccccc1 (stereo partly drawn) [Compound 15, 2-(((3R,4R,5S,6R)-3-acetamido-2,5-dihydroxy-6-(hydroxymethyl)tetrahydro-2H-pyran-4-yl)oxy)-N-((S)-1-phenylpropan-2-yl)acetamide]
- Amphetamine C0 (dog faecal homogenates): BLQ
- Amphetamine C0 (human faecal homogenates): BLQ

SMILES: CCC(=O)N[C@H]1C(O)O[C@H](CO)[C@@H](O)[C@@H]1O[C@H](C)C(=O)N[C@@H](C)Cc1ccccc1 (stereo partly drawn) [Compound 16, (2R)-2-[(3R,4R,5S)-2,5-dihydroxy-6-(hydroxymethyl)-3-(propanoylamino)tetrahydropyran-4-yl]oxy-N-[(1S)-1-methyl-2-phenyl-ethyl]propanamide]
- Amphetamine C0 (dog faecal homogenates): BLQ
- Amphetamine C0 (human faecal homogenates): BLQ
- conversion to the active by the microflora (human faecal homogenates): efficient conversion
- AUC [6]: 273 ng·h/mL
- Tmax [6]: 0.5 h

SMILES: CC(=O)N[C@H]1[C@@H]2OC[C@@H](O2)[C@@H](O)[C@@H]1O[C@H](C)C(=O)N[C@H](C)Cc1ccccc1 [Compound 17, (2R)-2-[[(2S,3R,4R)-4-acetamido-2-hydroxy-6,8-dioxabicyclo[3.2.1]octan-3-yl]oxy]-N-[(1R)-1-methyl-2-phenyl-ethyl]propanamide]
- Amphetamine C0 (dog faecal homogenates): BLQ
- Amphetamine C0 (human faecal homogenates): BLQ
- conversion to the active, human compared to dog faecal homogenates (human faecal homogenates): greater activity in human in vitro studies; also recorded: higher in human compared to dog faecal homogenates
- conversion to the active by the microflora (human faecal homogenates): efficient conversion
- AUC [6]: 213 ng·h/mL
- Tmax [6]: 0.5 h

SMILES: CC(C)C(=O)N[C@@H](C=O)[C@@H](O[C@H](C)C(=O)N[C@@H](C)Cc1ccccc1)[C@H](O)[C@H](O)CO [Compound 18, N-((2R,3R,4R,5R)-4,5,6-trihydroxy-1-oxo-3-(((R)-1-oxo-1-(((S)-1-phenylpropan-2-yl)amino)propan-2-yl)oxy)hexan-2-yl)isobutyramide]
- Amphetamine C0 (dog faecal homogenates): BLQ
- Amphetamine C0 (human faecal homogenates): BLQ

SMILES: CCCCCCCC(=O)N[C@@H](C=O)[C@@H](O[C@H](C)C(=O)N[C@@H](C)Cc1ccccc1)[C@H](O)[C@H](O)CO [Compound 19, N-((2R,3R,4R,5R)-4,5,6-trihydroxy-1-oxo-3-(((R)-1-oxo-1-(((S)-1-phenylpropan-2-yl)amino)propan-2-yl)oxy)hexan-2-yl)octanamide]
- Amphetamine C0 (dog faecal homogenates): BLQ
- Amphetamine C6 (human faecal homogenates): BLQ
- Amphetamine C0 (human faecal homogenates): BLQ

SMILES: C[C@H](N)Cc1ccccc1 [d-Amphetamine, d-amphetamine]
- Tmax ([1]; in vivo, 1 mg/kg): ≤ 1 h
- AUC ([1]; plasma, 1 mg/kg): 4440 ng·h/mL
- Tmax ([1]; plasma, 1 mg/kg): 2.4 h
